In patent publication EP0005541A2, “Substituted piperidine, morpholine or piperidone derivatives, fungicides containing these compounds, process for their preparation and their use, and the use of these compounds as fungicides” (F. HOFFMANN-LA ROCHE & CO. Aktiengesellschaft, priority 1978, dated 1979):
≈ marks a conversion by molar mass, not a printed value.

Tests used:
[1] = tested on: Venturia inaequalis; test: Venturia inaequalis protective spray test on apple seedlings; format: in vivo; conditions: infected 2 days after spraying, read on day 13 after infection vs infected untreated control
Protocol: 3 Apfelpflänzchen (verteilt auf 3 Töpfe mit 5 cm Durchmesser) aus Samen der Sorte GOLDIN DELICIOUS wurden im 4- bis 5-Blattstadium mit einer wässerigen Dispersion der Testsubstanz (wie allgemein üblich aufbereitet als Spritzpulver) allseitig gründlich besprüht. Die behandelten Pflanzen wurden anschliessend während 2 Tagen bei 17°C, 70-80%rel. Luftfeuchtigkeit und einer Photoperiode von 14 Stunden weiterkultiviert. Danach erfolgte die Infektion der Apfelsämlinge durch Besprühen mit in dest. Wasser suspendierten Konidien (200'000 Konidien/ml) von Venturia inaequalis. Nach der Infektion wurden die Pflanzen im Dunkeln während 48 Stunden bei 16-18°C und einer rel. Luftfeuchtigkeit von über 90% inkubiert und anschliessend in ein schattiertes Gewächshaus mit einer Temperatur von 22-26 °C und einer rel. Luftfeuchtigkeit von über 80% überführt. Am 13. Tage nach der Infektion erfolgte die Ermittlung der durch Venturia inaequalis befallenen Blattfläche gegenüber der infizierten, nicht behandelten Kontrolle. Die Resultate sind in Tabelle II zusammengefasst.

[2] = tested on: Histoplasma capsulatum Stamm Hist 2; test: microbe, parasite or virus in culture; format: cell-based; conditions: 288 h, read-out: MHC (µg/ml) Histoplasma capsulatum
[3] = tested on: Candida albicans Stamm H 29; test: Candida albicans in vitro agar dilution test; format: cell-based; conditions: STAMMH29, 168 h, minimal concentration fully preventing growth, tested at 100, 10, 1 mcg/ml, 7 days at 37°C, values mostly maximum values, true MHC may be lower
Protocol: Methode: Eine standardisierte Suspension der Hefeform von Candida albicans Stamm H 29 (ca. 300 Zellen/5 ml, das fünfzigfache der zum Angehen der Kultur notwendigen geringsten Keimzahl) wird gleichzeitig mit geeigneten Präparatlösungen in verflüssigten und auf 50°C abgekühlten Agarnährboden nach Rowley und Huber eingegossen. Lösung der Präparate in Wasser oder Polyäthylenglykol (Carbowax 400). Präparate, die weder in Wasser noch in Polyäthylenglykol löslich sind, werden fein suspendiert. Endkonzentrationen der Präparate im Nährboden 100, 10 und 1 mcg/ml. Endkonzentration von Polyäthylenglykol 5%. 7 Tage Bebrütung bei 37°C.
(§1) Auswertung: Ablesung des Pilzwachstums mit blossem Auge.
(§2) Resultate: Angabe der minimalen Präparatkonzentration in mcg/ml, die das Wachstum des Pilzes vollständig verhindert (MHC). Die Resultate sind für einige Beispiele in der nachstehenden Tabelle II zusammengefasst.

[4] = tested on: Puccinia coronata; test: Puccinia coronata protective spray test on oat seedlings; format: in vivo; conditions: oat seedlings FLAEMINGSKRONE, infected 2 days after spraying, read on day 9 after infection vs infected untreated control
Protocol: 30-40 Haferkeimlinge der Sorte FLAEMINGSKRONE (verteilt auf 2 Töpfe mit 7 cm Durchmesser) wurden jeweils im Einblattstadium mit einer wässerigen Dispersion der Testsubstanz (wie allgemein üblich aufbereitet als Spritzpulver) allseitig gründlich besprüht und anschliessend in einer Klimakabine bei 17°C. 70-80% rel. Luftfeuchtigkeit und einer Photoperiode von 16 Stunden weiterkultiviert. Nach 2 Tagen erfolgte die Infektion der Versuchspflanzen durch Besprühen mit in dest. Wasser suspendierten Uredosporen (300'000 Sporen/ml) vor. Puccinia coronata. Danach wurden die Pflanzen während 24 Stunden bei 20°C und einer Luftfeuchtigkeit von über 90W im Dunkeln inkubiert und anschliessend in ein Gewächshaus mit einer Temperatur von 22-26 °C, einer rel. Luftfeuchtigkeit von 70% und einer Photoperiode von 18 Stunden übe führt. Am 9. Tage nach der Infektion wurde die durch Pucrinia coronata befallene Blattfläche in % gegenüber der infizierten, nicht behandelten Kontrolle ermittelt. Die ResLltate sind in Tabelle I zusammengefasst.

[5] = tested on: Erysiphe graminis; test: Erysiphe graminis protective spray test on barley seedlings (greenhouse); format: in vivo; conditions: barley seedlings HERTA, infected 2 days after spraying, read 7 days after infection vs infected untreated control
Protocol: 30-40 Gerstenkeimlinge der Sorte HERTA (verteilt auf 2 Töpfe mit 7 cm Durchmesser) wurden jeweils im Einblattstadium mit einer wässerigen Dispersion der Testsubstanz (wie allgemein üblich aufbereitet als Spritzpulver) allseitig gründlich besprüht und anschliessend bei 22-26°C, 80% rel. Luftfeuchtigkeit und einer Photoperiode von 16 Stunden im Gewächshaus weiterkultiviert. Die Infektion erfolgte 2 Tage nach der Behandlung durch Bestäuben der Versuchspflanzen mit Kon dien von Erysiphe graminis. 7 Tage nach der Infektion wurde ::ie durch Erysiphe graminis befallene Blattfläche in % gegenüber derjenigen der infizierten, nicht behandelten Kontrolle ermittelt. Die Resultate sind in Tabelle I zusammengefasst.

[6] = tested on: Trichophyten mentagrophytes Stamm 109; test: Trichophyton mentagrophytes in vitro agar dilution test; format: cell-based; conditions: STAMM109, 168 h, minimal concentration fully preventing growth, tested at 100, 10, 1, 0,1, 0,01 mcg/ml, 7 days at 37°C, values mostly maximum values, true MHC may be lower, read-out: MHC (µg/ml) Trichophyton mentagr.
Protocol: Methode: Eine standardisierte Suspension der Hefeform von Konidien (Sporen) von Trichophyten mentagrophytes Stamm 109 (ca. das Fünfzigfache der zum Angehen der Kultur notwendigen geringsten Keimzahl) wird gleichzeitig mit geeigneten Präparatlösungen in verflüssigten und auf 50°C abgekühlten Agarnährboden nach Rowley und Huber eingegossen. Lösung der Präparate in Wasser oder Polyäthylenglykol (Carbowax 400). Präparate, die weder in Wasser noch in Polyäthylenglykol löslich sind, werden fein suspendiert. End- . konzentrationen der Präparate im Nährboden 100, 10, 1, 0,1 und 0,01 mcg/ml. Endkonzentration von Polyäthylenglykol 5%. 7 Tage Bebrütung bei 37°C.
as §1, §2

Compound	Wirkung (in %) Venturia inaequalis ([1]; 500 mg/l Spritzbrühe)	MIC [2]	MIC [3]	Wirkung (in %) Puccinia coronata ([4]; 5 mg/l Spritzbrühe)	Wirkung (in %) Puccinia coronata ([4]; 16 mg/l Spritzbrühe)	Wirkung (in %) Puccinia coronata ([4]; 50 mg/l Spritzbrühe)	Wirkung (in %) Puccinia coronata ([4]; 160 mg/l Spritzbrühe)	Wirkung (in %) Puccinia coronata ([4]; 500 mg/l Spritzbrühe)	Wirkung (in %) Erysiphe graminis ([5]; 5 mg/l Spritzbrühe)	Wirkung (in %) Erysiphe graminis ([5]; 16 mg/l Spritzbrühe)	Wirkung (in %) Erysiphe graminis ([5]; 50 mg/l Spritzbrühe)	Wirkung (in %) Erysiphe graminis ([5]; 160 mg/l Spritzbrühe)	Wirkung (in %) Erysiphe graminis ([5]; 500 mg/l Spritzbrühe)	MIC [6]	Wirkung (in %) Venturia inaequalis ([1]; 5 mg/l Spritzbrühe)	Wirkung (in %) Venturia inaequalis ([1]; 16 mg/l Spritzbrühe)	Wirkung (in %) Venturia inaequalis ([1]; 50 mg/l Spritzbrühe)	Wirkung (in %) Venturia inaequalis ([1]; 160 mg/l Spritzbrühe)
CCC(C)(C)c1ccc(CC(C)CN2CCC(=O)CC2)cc1 (stereo not drawn) [1-[3-(p-tert.-Amyl-phenyl)-2-methyl-propyl]-4-piperidon]	20%	10 µg/mL (≈ 33.2 µM)	10 µg/mL (≈ 33.2 µM)	0%	10%	90%	98%	100%	20%	80%	95%	100%	100%	10 µg/mL (≈ 33.2 µM)	–	–	–	–
CCC(C)(C)c1ccc(C(C)=C(C)CN2CCC(=O)CC2)cc1 [1-[3-(p-tert.-Amyl-phenyl)-2,3-dimethyl-2-propenyl]-4-piperidon]	–	10 µg/mL (≈ 31.9 µM)	10 µg/mL (≈ 31.9 µM)	90%	95%	100%	100%	100%	60%	85%	90%	98%	–	10 µg/mL (≈ 31.9 µM)	0%	37%	83%	98%
